The source made the active and inactive calls.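 How the source made its calls: active means compounds giving half or more protection of infected cells from virus-caused growth loss, again on retest; inactive means the rest.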
Test system: CEM cells HIV-1 protection, formazan growth assay
Test: NCI AIDS Antiviral Assay
Details: for IC50: measured here: growth of uninfected CEM cells
Procedure, shortened: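 Five concentrations of each compound were applied to infected and uninfected human CEM cells. Protection from HIV-1 was judged from growth measured with a soluble formazan assay.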

Row | SMILES | EC50 [µM] | IC50 [µM] | outcome
1 | CCOC(=O)[C@@H]1ON2OC(OC3CCCC3(c3ccccc3)c3ccccc3)C(OC(C)=O)[C@H]3OC(=O)[C@@H]1C32 (stereo not given in full) | > 200 | > 200 | 
2 | O=C(O)CC1(CC(=O)Nc2nccs2)CCCCC1 | > 126 | > 126 | 
3 | C=CCCC1(CCP(=O)(c2ccccc2)c2ccccc2)OCCO1 | > 708 | 155 | 
4 | O=C1C2c3[nH]c4ccccc4c3[C@@H]3CCCCCCCCCCC3C2C(=O)N1c1ccccc1 (stereo not given in full) |  |  | inactive
5 | Cc1c2[nH]c3ccc(Br)cc3c2c(C)c2[nH]ccc(=O)c12 | > 3.31 | > 3.31 | 
6 | O=S(=O)(c1cc(Cl)ccc1Cl)N1CCN(c2ccc(Cl)c(Cl)c2)CC1 | > 200 | > 200 | 
7 | O=C(O)C1(Cc2ccc3c(c2)CCC3)Cc2ccccc2C1 | > 200 | 81.3 | 
8 | CC1(C(=O)O)CCOc2ccccc21 (stereo not given) |  |  | inactive
9 | COc1c(Cl)cc(Cl)c(CCCCCCCC(=O)O)c1Cl | > 100 | > 100 | 
10 | COc1ccc(OC)c2c3c(ccc12)C(C)(c1ccccc1)OC3=O (stereo not given) | > 191 | 89.1 | 
11 | CCn1c(SCC(=O)N/N=C/c2ccccc2)nc2ccccc2c1=O | > 200 | 23.4 | 
12 | CC12CCC(C(S(=O)(=O)Nc3ccccc3)C1=O)C2(C)C (stereo not given) | > 200 | 138 | 
13 | O=c1ccn(C2OC(CO)C(O)C2F)c(=O)n1Cc1ccccc1 (stereo not given) | > 200 | > 200 | 
14 | CC1OC(OC2C(Oc3cc(O)c4c(c3)O[C@H](c3ccc(O)cc3)CC4=O)OC(CO)C(O)C2O)C(O)C(O)C1O (stereo not given in full) | > 200 | > 200 | 
15 | CN1C(=O)c2ccccc2C2(O)c3ccccc3-c3ccccc3C12O (stereo not given) | > 20 | 4.47 | 
16 | C/C(O)=C(\C=NC(=S)c1ccncc1)C(=O)Nc1ccccc1C | > 200 | > 200 | 
17 | CC1=NN(C2=NS(=O)(=O)c3ccccc3N2C)C(=O)C1 | > 123 | > 123 | 
18 | CCN(CC)C(=S)SC1C(=O)NC(=O)NC1=O | > 200 | > 200 | 
19 | CN(C)CCNc1ccc2c(=O)n(CCN(C)C)c(=O)n3c4ccc(O)cc4c(=O)c1c23 | > 0.2 | 0.0107 | 
20 | CN1C2=CC=CC=CC2=[N+](C)C1C(=C=[N-])C#N (stereo not given) | > 363 | 245 | 
21 | CC(=O)O/C(=C(/C#N)C(=O)O)C1C(C(=O)O)C(c2ccccc2[N+](=O)[O-])C=C(c2ccco2)N1c1ccncc1 (stereo not given) | > 20 | 2.4 | 
22 | O=c1sc2c(s1)-c1sc(=O)sc1SS2 | > 77.6 | 51.3 | 

Row | SMILES | EC50 [µM] | IC50 [µM] | outcome
23 | Cn1cc(NC(=O)c2cc(NC(=O)Nc3cc(C(=O)Nc4cc(C(=O)Nc5ccc6cc(S(=O)(=O)O)cc(S(=O)(=O)O)c6c5)n(C)c4)n(C)n3)nn2C)cc1C(=O)Nc1ccc2cc(S(=O)(=O)O)cc(S(=O)(=O)O)c2c1 | 6.17 | > 100 | 
24 | NS(=O)(=O)c1ccc(Nc2c3ccccc3nc3c(C(=O)N4CCN(CCO)CC4)cccc23)cc1 | > 43.7 | > 43.7 | 
25 | CC(=O)N/C(=C\c1ccc(Cc2nc3c([nH]2)C(=O)c2ccccc2C3=O)cc1)c1nc2c([nH]1)C(=O)c1ccccc1C2=O | > 12.6 | > 12.6 | 
26 | O=C(CCNNC(=O)c1ccncc1)NCc1ccccc1 | > 200 | > 200 | 
27 | Cc1cc(NS(=O)(=O)c2ccc(NC(=O)c3cccc4c(NNc5ccc(S(=O)(=O)N=C(N)N)cc5)c5ccccc5nc34)cc2)no1 | > 158 | 63.1 | 
28 | CC1(C)CC(=O)C2=C(C1)NC(SSC1=C(C#N)C(c3ccccc3)C3=C(CC(C)(C)CC3=O)N1)=C(C#N)C2c1ccccc1 (stereo not given) | > 112 | 15.5 | 
29 | N#Cc1c(-c2ccc([N+](=O)[O-])cc2)c(C#N)c(=O)n(NS(=O)(=O)c2ccccc2)c1S | > 200 | 16.6 | 
30 | Cc1cccc(NC2=NCCO2)c1Cl | > 200 | 105 | 
31 | CCOC(=O)NN(C(=O)OCC)C(=C(C1=CCCCC1)N1CCOCC1)N(NC(=O)OCC)C(=O)OCC | > 200 | > 200 | 
32 | COc1ccc(CN=C(N)N)c2ccccc12 | > 200 | 5.13 | 
33 | Cc1cccc2c1CC(C1OC(=O)c3c(C)cccc31)C2=O (stereo not given) | > 200 | 120 | 
34 | CN(C)CCC(O)(Cc1ccccc1)c1ccco1 (stereo not given) | > 200 | 34.7 | 
35 | CCOC(=O)CNS(=O)(=O)c1ccccc1 | > 200 | > 200 | 
36 | NC1=NNC2(C(N)=N1)c1ccccc1-c1ccccc12 | > 200 | 51.3 | 
37 | Cc1cc(=O)c2c(=O)oc3c4ccccc4ccc3c2o1 | > 200 | 105 | 
38 | NC(c1ccccc1)(C(F)(F)F)P1(=O)OC(=O)c2ccccc2O1 (stereo not given) | > 200 | > 200 | 
39 | Cn1c(=O)nc2n(-c3cccc(Br)c3)c3ccccc3nc-2c1=O |  |  | inactive
40 | CCOC(=O)[C@H]1Nc2c(cccc2[N+](=O)[O-])[C@H]2OCC[C@@H]12 | > 447 | > 447 | 
41 | COc1cc2ccnc3c2c(c1OC)CC1CC(O)C(OC)CC31 (stereo not given) |  |  | inactive
42 | NC(CSC(c1ccccc1)(c1ccccc1)c1ccccc1)C(=O)O (stereo not given) | > 49 | 0.813 | 
43 | Cc1c(/C=N/NC(=S)Nc2ccccc2)c(=O)n(-c2ccccc2)n1C | > 200 | > 200 | 
44 | CC(=O)NC(CCC(=O)c1ccc(Cl)cc1)C(=O)O (stereo not given) | > 200 | > 200 | 

Row | SMILES | EC50 [µM] | IC50 [µM] | outcome
45 | CNc1ccc(Cl)cc1S(=O)(=O)c1ccccc1 | 6.03 | > 200 | 
46 | Oc1ccc(/C=C/c2cc(O)cc3c2C(c2cc(O)cc4c2C(c2cc(O)cc(O)c2)C(c2ccc(O)cc2)O4)C(c2ccc(O)cc2)O3)cc1 (stereo not given) | > 20.9 | 10.5 | 
47 | Cc1ccc(S(=O)(=O)/C(C#N)=C\NC(=S)N=Nc2c(O)[nH]c3ccccc23)cc1 | > 200 | > 200 | 
48 | C=C(C)C1CC2=C(O1)C(=O)c1ccccc1C2=O (stereo not given) | > 200 | 2 | 
49 | CCO/C(O)=c1/s/c(=C2/SC(=S)N(c3ccc(C)cc3)C2=O)n(-c2ccccc2)c1=N | > 1.58 | > 1.58 | 
50 | CCC1(c2ccccc2)Oc2ccccc2-n2cccc2C1=O (stereo not given) | 1.78 | 5.01 | 
51 | COC(C)(C)C1=CCC(C)CC1 (stereo not given) | > 100 | > 100 | 
52 | CCOC(=O)C(NC(=O)c1ccccc1)(N1CCOCC1)C(F)(F)F (stereo not given) | > 200 | > 200 | 
53 | CC(NS(=O)(=O)c1ccc(Cl)cc1)C(=O)O (stereo not given) |  |  | inactive
54 | CCCCN=C(N)N=C(N)N | > 200 | 93.3 | 
55 | COc1ccc(C(=O)c2ccc(OC)c(S(=O)(=O)O)c2)cc1S(=O)(=O)O | > 575 | > 575 | 
56 | [N-]=[N+]=C1C(=O)NCN=C1c1ccccc1 | > 339 | > 339 | 
57 | C[n+]1c2ccccc2c(NC(CCC(N)=O)C(=O)O)c2ccccc21 (stereo not given) |  |  | inactive
58 | C#CCN(N=O)C(=O)NC(CCCCNC(=O)OCc1ccccc1)C(=O)OCc1ccccc1 (stereo not given) | > 10.7 | > 10.7 | 
59 | O=S(Cc1ccccc1)/C(=C/NC(=S)Nc1ccccc1)c1ccccc1 (stereo not given) | 182 | > 200 | 
60 | COC(=O)CCCCC=C(c1cc(Cl)c(OC)c(C(=O)OC)c1)c1cc(Cl)c(OC)c(C(=O)OC)c1 | 6.76 | 60.3 | 
61 | Nc1nc2c(ncn2C2COC(CO)O2)c(=O)[nH]1 (stereo not given) | 30.2 | > 200 | 
62 | CCOC(=O)c1ccc(N=C2S/C(=C\C(=S)Nc3ccccc3)N(c3ccccc3)C2=Nc2ccc(C(=O)OCC)cc2)cc1 | > 200 | > 200 | 
63 | COc1ccc(C(=O)O/N=C2/CCC/C2=C\c2ccccc2)cc1 |  |  | inactive
64 | CC1(CO)C(O)CCC2(C)C1CCC1CC3CC12CCC3(O)CO (stereo not given) | > 275 | 0.398 | 
65 | CCc1cc2c(c3c1CCCC3=O)CC1(Cc3ccc(C(=O)OC)cc3C1)C2 (stereo not given) | > 200 | 36.3 | 
66 | [O-][n+]1cc(SCc2ccccc2)ncc1SCc1ccccc1 | > 200 | > 200 | 

Row | SMILES | EC50 [µM] | IC50 [µM] | outcome
67 | COc1ccccc1/C=C1/NC(=S)NC1=O | > 200 | > 200 | 
68 | O=C(Nc1ccc(C(F)(F)F)cc1[N+](=O)[O-])C(=O)Nn1c(=S)[nH]c2ccccc2c1=O | > 79.4 | > 79.4 | 
69 | CC(=N)N(C)O | > 2000 | > 2000 | 
70 | COC(=O)/C=C1/C2CC3CC(C2)C(O)C1C3 (stereo not given) |  |  | inactive
71 | COc1ccc(/C=C2/CSC/C(=C/c3ccc(OC)c(OC)c3)C2=O)cc1OC | > 9.12 | 4.9 | 
72 | CCOC(=O)C(=O)CC(=O)C1=C(c2ccccc2OC)CC(c2cccs2)=CC1=O | > 200 | 32.4 | 
73 | O=C(CN1CCCCC1)c1ccc2[nH]c(=O)oc2c1 | > 200 | 129 | 
74 | OCC[P+](c1ccccc1)(c1ccccc1)c1ccccc1 | > 200 | 12.3 | 
75 | CC(C)CCCC(C)[C@H]1CC[C@H]2[C@@H]3CC[C@H]4C[C@@H](CCC=C(c5cc(Cl)c(O)c(C(=O)O)c5)c5cc(Cl)c(O)c(C(=O)O)c5)CC[C@]4(C)[C@H]3CC[C@]12C (stereo not given in full) (tested in a mixture with another compound) | > 100 | 40.7 | 
76 | COc1cc(Br)c(/C(=C\c2ccccc2N)C(=O)O)cc1OC |  |  | inactive
77 | CCCCc1c2c(nc3c1CCc1cc(C=O)c(N)nc1-3)/C(=C/c1ccccc1)CCC2 | > 4.37 | > 4.37 | 
78 | CCOP(=O)(OCC)/C(C#N)=C/c1ccc2ccccc2c1 | > 22.9 | > 22.9 | 
79 | [Co].[NH-]CC[NH-].[NH-]CC[NH-].[NH-]CC[NH-] | > 200 | > 200 | 
80 | O=C(/C(=N/Nc1ccccc1)c1ccc([N+](=O)[O-])cc1)c1ccc([N+](=O)[O-])cc1 |  |  | inactive
81 | O=C1CSC(=Nc2ccc(F)cc2F)N1Cc1cccs1 | > 107 | 40.7 | 
82 | COC(=O)C1CC2C=CC1N(C(=O)OCc1ccccc1)C2 (stereo not given) | > 200 | 170 | 
83 | CC(=N\N=C(N)N)/C(N=Nc1ccc(S(N)(=O)=O)cc1)=N\N=C(N)N | > 200 | 1.58 | 
84 | Cc1ccccc1C1CC(=O)CC(c2ccccc2C)C12C(=O)NC(=O)NC2=O (stereo not given) | > 200 | 105 | 
85 | O=C(/C=C\c1ccccc1)Oc1ccc(/C=C2\CCC/C(=C\c3ccc(OC(=O)/C=C\c4ccccc4)cc3)C2=O)cc1 | > 100 | > 100 | 

Reference: PubChem BioAssay AID179 (DTP/NCI, 2004)
